# Assays:
# Type in all cases: cell-based, human
# cell-surface LDLR = test: Immunofluorescence of cell-surface LDLR in HepG2 naïve cells; details: 33.3 μM, 20 h, non-permeabilized cells
# Experimental: HepG2 naïve cells were plated on Poly-L-Lysine-coated (50 ug/ml) round microscope cover slips 1.12 mm thickness (Fisherbrand 12CIR #1) that were placed in a 24-well cell culture plate. Seeding was performed in DMEM complete media (10% FBS) and 24 hours later the media was swapped for media (+0.07% BSA) containing 33.3 μM of the different inhibitor compounds (300 μl/well). A volume of DMSO equivalent to the volume of inhibitor compound was also diluted in 0.07% BSA containing media and used as a negative control. After a 20 hour incubation period, the cells were washed 3× with PBS and then fixed for 10 min with 3.7% paraformaldehyde. Immunofluorescence of human LDLR (green labeling) was performed under non-permeabilizing conditions. After an additional 3 washes with PBS, cells were blocked for 30 min with 1% BSA, followed by overnight incubation at 4° C. with primary antibody (1:200 goat polyclonal anti-hLDLR in 1% BSA, R&D Systems). […] Immunofluorescence analyses were performed with a confocal miscroscope (Zeiss LSM-710).
# The PCSK9 inhibitory compounds were characterized by immunofluorescence for cell-surface LDLR and for human transferrin receptor, as control, in HepG2 naïve cells. Cells were plated on Poly-L-Lysine-coated (50 ug/ml) round microscope cover slips 1.12 mm thickness (Fisherbrand 12CIR #1) that were placed in a 24-well cell culture plate. […]
# [1] = tested on: cell surface LDLR activity; test: Dil-LDL uptake assay in HepG2 naïve cells; details: 33.3 μM; HepG2 naïve cells
# Experimental: HepG2 naive cells and HEK293 naive cells were plated in 96-well plates (CellBind black plate with clear bottom (Corning; Cat #3340)) at a density of 25,000 cells/well, in complete media (DMEM high glucose (+sodium pyruvate for HepG2) (Wisent)+10% FBS). After 20 hours, cells were washed for 30 min with serum free DMEM media (100 μl/well), the wash media was removed and replaced with 100 μl/well of incubation media (DMEM high glucose (+sodium pyruvate for HepG2) (Wisent)+0.07% BSA (Sigma-Aldrich)) containing compound at various concentrations ([…]) or DMSO control (0.4% final). Each condition was prepared in triplicates. After 6 hours incubation at 37° C., Dil-LDL (Biomedical Technologies (Cat #BT-904)) was added to the cell media (5 μl) at 5 μg/ml final concentration, and cells returned to tissue culture incubator for another 18 hours (a total of 24 hours incubation with the compounds). After 2 washes (200 μl/well) with ice-cold D-PBS (Wisent) and aspiration of the final wash, plates were scanned (bottom read) on a SpectraMax GeminiEM™ plate reader (Molecular Devices). For each well, raw Dil-LDL uptake was measured as the average fluorescence intensity (RFU) (ex: 520 nm/em: 575 nm, cutoff: 550 nm) of 9 readings in 3 different points in the well. Dil-LDL uptake in each well was corrected for total number of cells by performing a CyQuant™ cell assay (Invitrogen; Cat #C7026). Namely, after recording the Dil fluorescence, the plate was frozen overnight at −80° C. The next day, the plates were thawed at room temperature, the cells lysed according to the manufacturer's protocol, and the number of cells/well was determined by measuring the fluorescence (RFU) of the CyQuant green fluorescent dye bound to the cellular nucleic acids (ex: 485 nm/em: 538 nm, cutoff: 515 nm). For each condition, Dil-RFU was divided by CyQuant-RFU. Corrected dil-LDL uptake is reported as % DMSO control and was obtained from triplicate wells.
# The PCSK9 inhibitory compounds were also characterized using a Dil-LDL fluorescent uptake assay as described in Poirier et al., J. Biol. Chem. 284: 28856-28864, 2009. The method entails the fluorescence measurement of the Dil-LDL cellular incorporation via LDLR internalization (a measurement of cell surface LDLR activity) in human hepatocyte derived HuH7 or HepG2 cell lines, or human embryonic HEK293 cells, in the presence or absence of compounds.
# HepG2 naïve cells and HEK293 naïve cells were plated in 96-well plates (CellBind™ black plate with clear bottom (Corning; Cat #3340)). At 20 h post-seeding, cells were incubated in the absence (DMSO or negative control) or in the presence of different concentrations of compounds. Each condition was prepared in triplicates. After 6 hours incubation, Dil-LDL (Biomedical Technologies (Cat #BT-904)) was added to the cell media, and cells returned to tissue culture incubator for another 18 hours. Plates were scanned (bottom read) on a SpectraMax GeminiEM™ plate reader (Molecular Devices). For each well, raw Dil-LDL uptake was measured as the average fluorescence intensity (RFU) (ex: 520 nm/em: 575 nm, cutoff: 550 nm) of 9 readings in 3 different points in the well. Dil-LDL uptake in each well was corrected for total number of cells by performing a CyQuant™ cell assay (Invitrogen, Cat #C7026) according to the manufacturer's instructions. Corrected Dil-LDL uptake is reported as a % of DMSO control and was obtained from triplicate wells.
# [2] = tested on: HepG2 stable cells over-expressing WT PCSK9(+V5); test: MTT toxicity assay; details: 33.3 μM or less; 24 h
# Experimental: HepG2 stable cells over-expressing hPCSK9(+V5) were seeded in complete DMEM (high glucose+sodium pyruvate) (Wisent)+10% FBS media in 96-well plates (Greiner BioOne) at a density of 1×10^5 cells/well (100 μl) and incubated for 20 hours. Cells were rinsed once with 100 ul/well of serum free DMEM media, followed by addition of 100 μl/well of DMEM (high glucose+sodium pyruvate) (Wisent)+0.07% BSA (Sigma-Aldrich) media containing compound at various concentrations (11, 33, 100 μM) or DMSO control (0.4% final) followed by overnight (24 hours) incubation. The MTT assay (Promega) consisted of addition of 20 μl/well MTT reagent and incubation for 45 minutes at 37° C., following the manufacturer's instructions. Absorbance was recorded at 490 nm and corrected for background due to nonspecific absorbance (690 nm).
# For the MTT toxicity assay, HepG2 stable cells over-expressing WT PCSK9(+V5) were seeded in 96-well plates (Greiner BioOne) and incubated for 20 hours. Following a brief wash, cells were incubated overnight (24 hours) in the presence of increasing concentrations (11, 33, 100 μM) of compounds or in the presence of DMSO (control). The MTT assay (Promega) consisted of addition of 20 μl/well MTT reagent and incubation for 45 minutes at 37° C., following the manufacturer's instructions. Absorbance was recorded at 490 nm and corrected for background due to nonspecific absorbance (690 nm). Compounds with a low toxicity at 33.3 μM or less were selected as exemplified in FIG. 3 for compounds 19, 22a, 23, 4 and 17.
SMILES,LDLR at the cell surface (immunofluorescence) (cell-surface LDLR),"Dil-LDL uptake (FIG. 5A, in words) [1]",toxicity in MTT assay [2]
"CCCCCCCCCC(=O)N[C@H](C(=O)N[C@@H](Cc1ccccc1)C(=O)N[C@@H](C)C(=O)NC(CCC(N)=O)C(O)C(F)(F)F)C(C)C (stereo partly drawn) [Example 19, N-((2S)-1-(((2S)-1-(((2S)-1-((6-Amino-1,1,1-trifluoro-2-hydroxy-6-oxohexan-3-yl)amino)-1-oxopropan-2-yl)amino)-1-oxo-3-phenylpropan-2-yl)amino)-3-methyl-1-oxobutan-2-yl)decanamide]",increase of LDLR at the cell surface,increase in the Dil-LDL uptake,low toxicity
"CCCCCCCCCC(=O)N[C@H](C(=O)N[C@@H](Cc1ccccc1)C(=O)NC(C)C(=O)NC(CCC(N)=O)C(C)O)C(C)C (single isomer, unassigned) [Example 22a]",,increase in the Dil-LDL uptake,low toxicity
"COC(=O)CCC(NC(=O)[C@H](C)NC(=O)[C@H](Cc1ccccc1)NC(=O)[C@@H](NC(=O)OC)C(C)C)B(O)O (mixture of isomers) [Example 17, [(1R/S)-4-Methoxy-1-[(2S)-2-[(2S)-2-[(2S)-2-[(methoxycarbonyl)amino]-3-methylbutanamido]-3-phenylpropanamido]propanamido]-4-oxobutyl]boronic acid]",,no measurable activity,low toxicity
"CCCCCCCCCC(=O)N[C@H](C(=O)N[C@@H](Cc1ccccc1)C(=O)N[C@@H](C)C(=O)NC(CCC(N)=O)C(O)CF)C(C)C (stereo partly drawn) [Example 21a, N-((2S)-1-(((2S)-1-(((2S)-1-((6-Amino-1-fluoro-2-hydroxy-6-oxohexan-3-yl)amino)-1-oxopropan-2-yl)amino)-1-oxo-3-phenylpropan-2-yl)amino)-3-methyl-1-oxobutan-2-yl)decanamide]",,increase in the Dil-LDL uptake,
"CC(C)[C@H](NC(=O)Cc1ccc(OC(F)(F)F)cc1)C(=O)N[C@@H](Cc1ccccc1)C(=O)N[C@@H](C)C(=O)NC(CCC(N)=O)C(O)C(F)(F)F (stereo partly drawn) [Example 23, 6,6,6-Trifluoro-5-hydroxy-4-((S)-2-((S)-2-((S)-3-methyl-2-(2-(4-(trifluoromethoxy)phenyl)acetamido)butanamido)-3-phenylpropanamido)propanamido)hexanamide]",,increase in the Dil-LDL uptake,low toxicity
"CC(C)[C@H](NC(=O)c1ccc(-c2ccccc2)cc1)C(=O)N[C@@H](Cc1ccccc1)C(=O)N[C@@H](C)C(=O)NCB(O)O [Example 2, {[(2S)-2-[(2S)-2-[(2S)-3-Methyl-2-[(4-phenylphenyl)formamido]butanamido]-3-phenylpropanamido]propanamido]methyl}boronic acid]",,no measurable activity,
"CCCCCCCCCC(=O)N[C@H](C(=O)N[C@@H](Cc1ccccc1)C(=O)N[C@@H](C)C(=O)NCB(O)O)C(C)C [Example 4, {[(2S)-2-[(2S)-2-[(2S)-2-Decanamido-3-methylbutanamido]-3-phenylpropanamido]propanamido]methyl}boronicacid]",,,low toxicity
COC(=O)N[C@H](C(=O)N[C@@H](Cc1ccccc1)C(=O)N[C@@H](C)C(=O)NCB(O)O)C(C)C [Example 1],,no measurable activity,

# From patent US20160031935A1, “SMALL MOLECULE MODULATORS OF PCSK9 AND METHODS OF USE THEREOF” (ADAERATA, LIMITED PARTNERSHIP, priority 2013, published 2016)
